From US20060014740A1 (priority 2003, published 2006)
Where two headings read alike, the source gives them in different places.

Assays:
RH7777 cells = assay: Apoptosis sandwich ELISA (DNA-histone complex), RH7777; type: cell-based, rat
Method: (§1) A sandwich ELISA (Roche, Mannheim, Germany) utilizing monoclonal antibodies specific for DNA and histones was used to quantify degree of apoptosis induced by the analogs after 72 h exposure. This assay measures DNA-histone complexes (mono- and oligonucleosomes) released into cytoplasm from the nucleus during apoptosis. RH7777 cells were employed because of nonspecific cytotoxicity of compound 4 in receptor-negative cells as well as receptor-positive prostate cancer cells.
(§2) From the LPL receptor mRNA expression studies (Table 2), it was evident that these cell lines serve as an excellent model system to explore the effects of LPL receptor. Given the structural similarity of SAPs to ceramide (and the known ability of ceramide to induce apoptosis), it was then determined whether the antiproliferative effects of thiazolidine analogs were mediated via apoptotla events. The ability of the analogs to induce apoptosis in LNCaP, PC-3, and RH7777 cells was examined using a quantitative sandwich ELISA that measures DNA-histone complex released during apoptosis. The enrichment factor calculated (as ratio of OD405 in treated and un-treated cells) provides a quantitative assessment of the degree of apoptosis induced. Initially, only two compounds (4 & 5) were used for this study. Apoptotic activity of analog (compound 4) was selective in prostate cancer cells despite nonselective cytotoxicity in RH7777 negative control cells (see Table 5 below). Analog compound 5 induced apoptosis in PC-3 and LNCaP cells, but to a lesser extent in PC-3 cells perhaps due to lower potency in this cell line.

[1] = system: LNCaP human prostate cancer cells; assay: SRB cytotoxicity assay, LNCaP; type: cell-based; conditions: Homo sapiens, LNCaP; Example 10 table; 96 h; read-out: IC50 LNCaP
In short: (§3)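 Read-out is protein-bound sulforhodamine B absorbance at 540 nm, reflecting cell number after 96 h of drug treatment. Compounds, taken from DMSO stocks and diluted in complete medium, spanned 0 to 100 μM.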

LNCaP cells [2] = assay: DNA fragmentation by agarose gel electrophoresis; type: cell-based, human; conditions: treated 24 to […], FIGS. 4A-B
Method: In FIG. 4B, the dose and exposure time are indicated for compound 5 as follows: lane 1, 100 bp DNA marker; lane 2, […] for 24 h; lane 3, 5 μM for 48 h; lane 4, 5 μM for 72 h; lane 5, 5 μM for 96 h; lane 6, 3 μM for 96 h; lane 7, 8 μM for 48 h; and lane 8, 8 μM for 72 h;

[3] = system: DU-145 human prostate cancer cells; assay: SRB cytotoxicity assay, DU-145; type: cell-based; conditions: Homo sapiens, DU-145, read-out: IC50 DU-145; Example 10 table; 96 h
In short: as §3

[4] = system: RH7777 rat hepatoma cells; assay: SRB cytotoxicity assay, RH7777 control cell line; type: cell-based
In short: as §3

PC-3 cells = assay: Apoptosis sandwich ELISA (DNA-histone complex), PC-3; type: cell-based, human
Method: as §1, §2

[5] = system: human breast cancer cell line (MCF-7); assay: SRB cytotoxicity assay, MCF-7; type: cell-based; conditions: Homo sapiens, MCF7, read-out: IC50 MCF-7
In short: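 Cells plated at 1000–5000 per well by growth rate and exposed to compound (0 to 100 μM) for 96 h, three to five replicates. Cell number read by sulforhodamine B: TCA fixation, 0.4% SRB staining, absorbance at 540 nm.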

[6] = system: PPC-1 human prostate cancer cells; assay: SRB cytotoxicity assay, PPC-1; type: cell-based; conditions: Homo sapiens, PPC-1; Example 10 table; 96 h; read-out: IC50 PPC-1
In short: as §3

LNCaP cells [7] = assay: Apoptosis sandwich ELISA (DNA-histone complex), LNCaP; type: cell-based, human
Method: as §1, §2

[8] = system: OVCAR-3 human ovarian cancer cell line; assay: SRB cytotoxicity assay, OVCAR-3; type: cell-based; conditions: Homo sapiens, OVCAR-3; Table 8
Method: (§4) For in vitro cytotoxicity screening, 1000 to 5000 cells were plated into each well of 96-well plates depending on growth rate, and exposed to different concentrations of a test compound for 96 h in three to five replicates. All the compounds were dissolved in dimethyl sulfoxide at 5 to 20 mM, and diluted to desired concentrations in complete culture medium. Cell numbers at the end of the drug treatment were measured by the SRB assay (Gududuru et al., “Synthesis and Biological Evaluation of Novel Cytotoxic Phospholipids for Prostate Cancer,” Bioorg. Med. Chem. Lett. 14:4919-4923 (2004); Rubinstein et at., “Comparison of in vitro Anticancer-Drug-Screening Data Generated with a Tetrazolium Assay Versus a Protein Assay Against a Diverse Panel of Human Tumor Cell Lines,” J. Naatl, Cancer Inst. 82:1113-1118 (1990), each of which is hereby incorporated by reference in its entirety). Briefly, the cells were fixed with 10% of trichloroacetic acid, stained with 0.4% SRB, and the absorbances at 540 nm was measured using a plate reader (DYNEX Technologies, Chantilly, Va.).
(§5) In vitro cytotoxicity assay was performed by the same sulforhodamine B (SRB) assay (described above). The compounds shown in Table 8 below where tested for activity against the breast cancer and ovarian cancer cell lines.

[9] = system: CaOv-3 human ovarian cancer cell line; assay: SRB cytotoxicity assay, CaOv-3; type: cell-based; conditions: Homo sapiens, Caov-3; Table 8
Method: as §4, §5

[10] = system: SKOv-3 human ovarian cancer cell line; assay: SRB cytotoxicity assay, SKOv-3; type: cell-based; conditions: Homo sapiens, SK-OV-3; Table 8
Method: as §4, §5

[11] = system: TSU-Pr1 human prostate cancer cells; assay: SRB cytotoxicity assay, TSU-Pr1; type: cell-based; conditions: Homo sapiens, TSU-Pr1; Example 10 table; 96 h; read-out: IC50 TSU-Pr1
In short: as §3

[12] = system: PC-3 human prostate cancer cells; assay: SRB cytotoxicity assay, PC-3; type: cell-based; conditions: Homo sapiens; Example 10 table; 96 h; read-out: IC50 PC-3
In short: as §3

CCCCCCCCCCCCCCNC(=O)[C@@H]1CSC(c2ccccc2)N1.Cl (mixture of isomers) [Compound 4-HCI, (2RS, 4R)-2-Phenylthiazolidine-4-carboxylic acid tetradecylamide Hydrochloride]
Apoptosis enrichment factor (ratio of OD405 in treated and un-treated cells) (RH7777 cells; 2 μM for 72 h): 2.6
Apoptosis enrichment factor (ratio of OD405 in treated and un-treated cells) (RH7777 cells; 5 μM for 72 h): 3.2
Apoptosis enrichment factor (ratio of OD405 in treated and un-treated cells) (RH7777 cells; 10 μM for 72 h): 2.5
IC50 [1]: 1.4 µM
DNA fragmentation (apoptosis) (LNCaP cells [2]): induce cell apoptosis
IC50 [3]: 2.4 µM
Fold less selective against RH7777 cell line than compound 5 [4]: 8 fold
IC50 ([4]; Rattus norvegicus, RH7777, Example 10 table, 0 to 100 μM for 96 h, read-out: IC50 RH7777): 3.4 µM
Apoptosis enrichment factor (ratio of OD405 in treated and un-treated cells) (PC-3 cells; 2 μM for 72 h): 1.8
Apoptosis enrichment factor (ratio of OD405 in treated and un-treated cells) (PC-3 cells; 5 μM for 72 h): 18.7
Apoptosis enrichment factor (ratio of OD405 in treated and un-treated cells) (PC-3 cells; 10 μM for 72 h): 54.0
IC50 ([5]; Example 10 table, 96 h): 4.2 µM
IC50 ([5]; Table 8, breast cancer cell line): 2.4 µM
IC50 [6]: 1.3 µM
Apoptosis enrichment factor (ratio of OD405 in treated and un-treated cells) (LNCaP cells [7]; 2 μM for 72 h): 14.1
Apoptosis enrichment factor (ratio of OD405 in treated and un-treated cells) (LNCaP cells [7]; 5 μM for 72 h): 75.4
Apoptosis enrichment factor (ratio of OD405 in treated and un-treated cells) (LNCaP cells [7]; 10 μM for 72 h): 80.7
IC50 [8]: 1.6 µM
IC50 [9]: 13.9 µM
IC50 [10]: 2.1 µM
IC50 [11]: 2 µM
IC50 [12]: 3 µM
